Results: patent US20260262643A1, “HERBICIDAL BENZOXAZINES” (FMC CORPORATION, priority 2022, published 2026)

Tests used:
[1] = system: barnyardgrass; assay: Test D flooded paddy test; assay type: in vivo, Echinochloa crus-galli; conditions: 250 g ai/ha, applied to paddy water, visual rating after 13 to 14 days, scale 0 to 100 (0 no effect, 100 complete control)
In short: (§1)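 At the 2-leaf stage, floodwater 3 cm deep received the test compound; that depth persisted throughout. Plants scored visually 13 to 14 days on, 0 (no effect) to 100 (complete control), dash indicating no result.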

[2] = system: blackgrass; assay: Test C preemergence; assay type: in vivo, Alopecurus myosuroides; conditions: 0 to 100 scale (0 no effect, 100 complete control)
In short: (§2)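 Visual injury score, 0–100 (100 = complete control), taken 10 days after treatment relative to untreated controls. Pre: directed spray onto soil over sown seeds. Post: foliar spray at one- to two-leaf stage, 2–10 cm. Solvent/surfactant formulation; loam–sand soil; greenhouse.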

[3] = system: blackgrass; assay: Test C postemergence; assay type: in vivo, Alopecurus myosuroides; conditions: Alopecurus myosuroides, post-emergence, 240 h, 10 days, read-out: Plant response rating, Blackgrass
In short: as §2

[4] = system: soybean; assay: Test C preemergence; assay type: in vivo, Glycine max; conditions: 0 to 100 scale (0 no effect, 100 complete control)
In short: as §2

[5] = system: barnyardgrass; assay: Test C postemergence; assay type: in vivo, Echinochloa crusgalli; conditions: 10 days
In short: as §2

[6] = system: corn; assay: Test C postemergence; assay type: in vivo, Zea mays; conditions: Zea mays, post-emergence, 240 h, 10 days
In short: as §2

[7] = system: oat, wild; assay: Test C postemergence; assay type: in vivo, Avena fatua; conditions: 10 days
In short: as §2

[8] = system: corn; assay: Test C preemergence; assay type: in vivo, Zea mays; conditions: 0 to 100 scale (0 no effect, 100 complete control)
In short: as §2

[9] = system: barnyardgrass; assay: Test C preemergence; assay type: in vivo, Echinochloa crusgalli; conditions: 0 to 100 scale (0 no effect, 100 complete control)
In short: as §2

[10] = system: green foxtail; assay: Test C preemergence; assay type: in vivo, Setaria viridis; conditions: 0 to 100 scale (0 no effect, 100 complete control)
In short: as §2

[11] = system: kochia; assay: Test C preemergence; assay type: in vivo, Bassia scoparia; conditions: 0 to 100 scale (0 no effect, 100 complete control)
In short: as §2

[12] = system: sedge, umbrella; assay: Test D flooded paddy test; assay type: in vivo, Cyperus difformis; conditions: 250 g ai/ha, applied to paddy water, visual rating after 13 to 14 days, scale 0 to 100 (0 no effect, 100 complete control)
In short: as §1

[13] = system: green foxtail; assay: Test C postemergence; assay type: in vivo, Setaria viridis; conditions: 10 days
In short: as §2

[14] = system: pigweed, palmer; assay: Test C preemergence; assay type: in vivo, Amaranthus palmeri; conditions: 0 to 100 scale (0 no effect, 100 complete control)
In short: as §2

[15] = system: pigweed, palmer; assay: Test C postemergence; assay type: in vivo, Amaranthus palmeri; conditions: 10 days
In short: as §2

[16] = system: ryegrass, Italian; assay: Test C preemergence; assay type: in vivo, Lolium multiflorum; conditions: 0 to 100 scale (0 no effect, 100 complete control)
In short: as §2

[17] = system: wheat; assay: Test C postemergence; assay type: in vivo, Triticum aestivum; conditions: 10 days
In short: as §2

[18] = system: ducksalad; assay: Test D flooded paddy test; assay type: in vivo, Heteranthera limosa; conditions: 250 g ai/ha, applied to paddy water, visual rating after 13 to 14 days, scale 0 to 100 (0 no effect, 100 complete control)
In short: as §1

[19] = system: soybean; assay: Test C postemergence; assay type: in vivo, Glycine max; conditions: 10 days
In short: as §2

[20] = system: ragweed; assay: Test C preemergence; assay type: in vivo, Ambrosia artemisiifolia; conditions: 0 to 100 scale (0 no effect, 100 complete control)
In short: as §2

[21] = system: rice; assay: Test D flooded paddy test; assay type: in vivo, Oryza sativa; conditions: 250 g ai/ha, applied to paddy water, visual rating after 13 to 14 days, scale 0 to 100 (0 no effect, 100 complete control)
In short: as §1

[22] = system: kochia; assay: Test C postemergence; assay type: in vivo, Bassia scoparia; conditions: 10 days
In short: as §2

[23] = system: ragweed; assay: Test C postemergence; assay type: in vivo, Ambrosia artemisiifolia; conditions: 10 days
In short: as §2

[24] = system: ryegrass, Italian; assay: Test C postemergence; assay type: in vivo, Lolium multiflorum; conditions: 10 days
In short: as §2

[25] = system: horseweed; assay: Test C postemergence; assay type: in vivo, Erigeron canadensis; conditions: 10 days
In short: as §2

[26] = system: oat, wild; assay: Test C preemergence; assay type: in vivo, Avena fatua; conditions: 0 to 100 scale (0 no effect, 100 complete control)
In short: as §2

[27] = system: wheat; assay: Test C preemergence; assay type: in vivo, Triticum aestivum; conditions: 0 to 100 scale (0 no effect, 100 complete control)
In short: as §2

[28] = Preemergence, 500 g ai/ha, visual rating after 10 days
[29] = Test C, preemergence, 125 g ai/ha
[30] = 125 g ai/ha, postemergence, 0 to 100 scale (0 no effect, 100 complete control)
[31] = Postemergence, 500 g ai/ha, visual 0 to 100 scale (0 no effect, 100 complete control)
[32] = 125 g ai/ha, postemergence, 0 to 100 scale, 0 no effect, 100 complete control

COc1cc(-n2cnc(C(C)C)n2)cc(C(=O)N2C[C@H](C)Oc3c(Cl)cccc32)c1OC [Compound 194, [(2S)-8-chloro-2-methyl-2,3-dihydro-1,4-benzoxazin-4-yl]-[5-(3-isopropyl-1,2,4-triazol-1-yl)-2,3-dimethoxy-phenyl]methanone]
20%: Corn plant response rating (crop injury, 0 = no effect, 100 = complete kill) at 500 g/ha [6, 31]
30: Plant response rating, Barnyardgrass [5, 31] | Plant response rating, Corn [8, 28] | Plant response rating, Pigweed, Palmer [14, 28] | Plant response rating, Ryegrass, Italian [24, 32]
10: Plant response rating, Soybean [4, 28] | Soybean plant response rating [4, 29] | Plant response rating, Barnyardgrass [5, 32] | Barnyardgrass plant response rating [9, 29] | Plant response rating, Foxtail, Green [13, 32] | Plant response rating, Kochia [22, 32]
0: Plant response rating, Barnyardgrass (Flood) [1] | Plant response rating, Oat, Wild [7, 32] | Corn plant response rating [8, 29] | Plant response rating, Kochia [11, 28] | Kochia plant response rating [11, 29] | Plant response rating, Sedge, Umbrella (Flood) [12] | Plant response rating, Pigweed, Palmer [15, 32] | Plant response rating, Ducksalad (Flood) [18] | Plant response rating, Rice (Flood) [21] | Plant response rating, Ragweed [23, 32] | Plant response rating, Horseweed [25, 32] | Plant response rating, Horseweed [25, 31] | Wheat plant response rating [27, 29]
20: Blackgrass plant response rating [2, 29] | Plant response rating, Oat, Wild [7, 31] | Pigweed, Palmer plant response rating [14, 29] | Plant response rating, Pigweed, Palmer [15, 31] | Plant response rating, Wheat [17, 32] | Plant response rating, Wheat [17, 31] | Plant response rating, Ragweed [20, 28] | Ragweed plant response rating [20, 29] | Oat, Wild plant response rating [26, 29]
50: Plant response rating, Foxtail, Green [13, 31] | Plant response rating, Ragweed [23, 31] | Plant response rating, Wheat [27, 28]
90: Plant response rating, Ryegrass, Italian [16, 28] | Plant response rating, Soybean [19, 32] | Plant response rating, Soybean [19, 31] | Plant response rating, Oat, Wild [26, 28]
70: Plant response rating, Barnyardgrass [9, 28] | Foxtail, Green plant response rating [10, 29] | Ryegrass, Italian plant response rating [16, 29] | Plant response rating, Ryegrass, Italian [24, 31]
30%: pest or weed control at 500 g/ha [3, 31]
10%: Corn plant response rating (crop injury, 0 = no effect, 100 = complete kill) at 125 g/ha [6, 30]
0%: pest or weed control at 125 g/ha [3, 30]
80: Plant response rating, Blackgrass [2, 28] | Plant response rating, Kochia [22, 31]
100: Plant response rating, Foxtail, Green [10, 28]
